Test results taken from publication PMC9401498 (Clinical Cancer Research, 2021).
“Also recorded” adds a separate entry of the source.

System: patients with advanced and/or treatment-refractory solid tumors
Test: Safety and tolerability: adverse events
Format: in vivo, human
[1] = TID-fasted (n = 32), All grades

## O=C(Cc1cccc(OC(F)(F)F)c1)Nc1ccc(CCCCc2nnc(NC(=O)Cc3ccccn3)s2)nn1 [telaglenastat, Telaglenastat]
17 of 120 patients
  Patients with dose reductions: 14%
50 of 120 patients, primarily due to AEs
  Patients with dose interruptions: 42%
100–800 mg TID-fasted, 600–1,000 mg BID-fed
  Maximum tolerated dose (MTD): not reached; also recorded: not established
BID-fed (n = 88), All grades
  Abdominal distension (treatment-related AE): 2 (2.3) n (%)
  Activated partial thromboplastin time prolonged (treatment-related AE): 2 (2.3) n (%)
  Alanine aminotransferase increased (treatment-related AE): 14 (15.9) n (%)
  Ammonia increased (treatment-related AE): 2 (2.3) n (%)
  Anemia (treatment-related AE): 5 (5.7) n (%)
  Aspartate aminotransferase increased (treatment-related AE): 10 (11.4) n (%)
  Blood alkaline phosphatase increased (treatment-related AE): 6 (6.8) n (%)
  Blood bilirubin increased (treatment-related AE): 3 (3.4) n (%)
  Blood creatinine increased (treatment-related AE): 4 (4.5) n (%)
  Constipation (treatment-related AE): 3 (3.4) n (%)
  Decreased appetite (treatment-related AE): 8 (9.1) n (%)
  Diarrhea (treatment-related AE): 2 (2.3) n (%)
  Dysgeusia (treatment-related AE): 2 (2.3) n (%)
  Dyspepsia (treatment-related AE): 2 (2.3) n (%)
  Fatigue (treatment-related AE): 21 (23.9) n (%)
  Gastroesophageal reflux disease (treatment-related AE): 2 (2.3) n (%)
  Hypomagnesemia (treatment-related AE): 4 (4.5) n (%)
  Hyponatremia (treatment-related AE): 2 (2.3) n (%)
  Nausea (treatment-related AE): 21 (23.9) n (%)
  Neuropathy peripheral (treatment-related AE): 2 (2.3) n (%)
  Patients with ≥1 treatment-emergent AE: 84 (95.5) n (%)
  Patients with ≥1 treatment-related AE: 64 (72.7) n (%)
  Photophobia (treatment-related AE): 12 (13.6) n (%)
  Photopsia (treatment-related AE): 2 (2.3) n (%)
  Thrombocytopenia (treatment-related AE): 4 (4.5) n (%)
  Vision blurred (treatment-related AE): 3 (3.4) n (%)
  Vomiting (treatment-related AE): 5 (5.7) n (%)
  Weight decreased (treatment-related AE): 3 (3.4) n (%)
  γ-Glutamyltransferase increased (treatment-related AE): 7 (8.0) n (%)
BID-fed (n = 88), Grade 3
  Abdominal distension (treatment-related AE): 0 n (%)
  Activated partial thromboplastin time prolonged (treatment-related AE): 0 n (%)
  Alanine aminotransferase increased (treatment-related AE): 2 (2.3) n (%)
  Ammonia increased (treatment-related AE): 0 n (%)
  Anemia (treatment-related AE): 1 (1.1) n (%)
  Aspartate aminotransferase increased (treatment-related AE): 1 (1.1) n (%)
  Blood alkaline phosphatase increased (treatment-related AE): 1 (1.1) n (%)
  Blood bilirubin increased (treatment-related AE): 0 n (%)
  Blood creatinine increased (treatment-related AE): 0 n (%)
  Constipation (treatment-related AE): 0 n (%)
  Decreased appetite (treatment-related AE): 0 n (%)
  Diarrhea (treatment-related AE): 0 n (%)
  Dysgeusia (treatment-related AE): 0 n (%)
  Dyspepsia (treatment-related AE): 0 n (%)
  Fatigue (treatment-related AE): 0 n (%)
  Gastroesophageal reflux disease (treatment-related AE): 0 n (%)
  Hypomagnesemia (treatment-related AE): 0 n (%)
  Hyponatremia (treatment-related AE): 0 n (%)
  Nausea (treatment-related AE): 0 n (%)
  Neuropathy peripheral (treatment-related AE): 0 n (%)
  Patients with ≥1 treatment-emergent AE: 28 (31.8) n (%)
  Patients with ≥1 treatment-related AE: 3 (3.4) n (%)
  Photophobia (treatment-related AE): 0 n (%)
  Photopsia (treatment-related AE): 0 n (%)
  Thrombocytopenia (treatment-related AE): 0 n (%)
  Vision blurred (treatment-related AE): 0 n (%)
  Vomiting (treatment-related AE): 0 n (%)
  Weight decreased (treatment-related AE): 0 n (%)
  γ-Glutamyltransferase increased (treatment-related AE): 2 (2.3) n (%)
BID-fed (n = 88), Grade 4
  Abdominal distension (treatment-related AE): 0 n (%)
  Activated partial thromboplastin time prolonged (treatment-related AE): 0 n (%)
  Alanine aminotransferase increased (treatment-related AE): 0 n (%)
  Ammonia increased (treatment-related AE): 0 n (%)
  Anemia (treatment-related AE): 0 n (%)
  Aspartate aminotransferase increased (treatment-related AE): 0 n (%)
  Blood alkaline phosphatase increased (treatment-related AE): 0 n (%)
  Blood bilirubin increased (treatment-related AE): 0 n (%)
  Blood creatinine increased (treatment-related AE): 0 n (%)
  Constipation (treatment-related AE): 0 n (%)
  Decreased appetite (treatment-related AE): 0 n (%)
  Diarrhea (treatment-related AE): 0 n (%)
  Dysgeusia (treatment-related AE): 0 n (%)
  Dyspepsia (treatment-related AE): 0 n (%)
  Fatigue (treatment-related AE): 0 n (%)
  Gastroesophageal reflux disease (treatment-related AE): 0 n (%)
  Hypomagnesemia (treatment-related AE): 0 n (%)
  Hyponatremia (treatment-related AE): 0 n (%)
  Nausea (treatment-related AE): 0 n (%)
  Neuropathy peripheral (treatment-related AE): 0 n (%)
  Patients with ≥1 treatment-emergent AE: 5 (5.7) n (%)
  Patients with ≥1 treatment-related AE: 0 n (%)
  Photophobia (treatment-related AE): 0 n (%)
  Photopsia (treatment-related AE): 0 n (%)
  Thrombocytopenia (treatment-related AE): 0 n (%)
  Vision blurred (treatment-related AE): 0 n (%)
  Vomiting (treatment-related AE): 0 n (%)
  Weight decreased (treatment-related AE): 0 n (%)
  γ-Glutamyltransferase increased (treatment-related AE): 0 n (%)
BID-fed schedule
  Grade 3/4 ALT increase: 2%
  Grade 3/4 AST increase: 1%
BID-fed, 3/88
  Incidence of treatment-related grade 3/4 AEs: 3%
[1]
  Abdominal distension (treatment-related AE): 0 n (%)
  Activated partial thromboplastin time prolonged (treatment-related AE): 0 n (%)
